Measured values as given in PubChem BioAssay (NCI).
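Test compounds were applied to cells in 96-well plates for 48 hours at 5 doses. TGI marks complete inhibition of growth.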

Assays:
Experiment in all cases: DTP human tumour cell line panel, 48 h
[1] = test system: A498 renal
[2] = test system: OVCAR-5 ovarian
[3] = test system: NCI-H226 lung
[4] = test system: CAKI-1 renal
[5] = test system: HS 578T breast
[6] = test system: SN12C renal
[7] = test system: 786-0 renal
[8] = test system: SK-OV-3 ovarian
[9] = test system: HCT-116 colon
[10] = test system: SNB-19 CNS
[11] = test system: NCI-H522 lung
[12] = test system: SW-620 colon
[13] = test system: OVCAR-4 ovarian
[14] = test system: TK-10 renal
[15] = test system: MDA-MB-435
[16] = test system: HOP-62 NSCLC
[17] = test system: MDA-MB-231 breast
[18] = test system: MDA-N
[19] = test system: DU-145 prostate
[20] = test system: U251 CNS
[21] = test system: HCT-15 colon
[22] = test system: OVCAR-3 ovarian
[23] = test system: MALME-3M melanoma
[24] = test system: T-47D breast
[25] = test system: SK-MEL-2 melanoma
[26] = test system: RPMI-8226 leukemia
[27] = test system: UACC-62 melanoma
[28] = test system: CCRF-CEM leukemia
[29] = test system: HCC-2998 colon
[30] = test system: MCF7 breast
[31] = test system: K-562 leukemia
[32] = test system: HT29 colon
[33] = test system: SNB-75 CNS
[34] = test system: BT-549 breast
[35] = test system: UACC-257 melanoma
[36] = test system: EKVX NSCLC
[37] = test system: NCI-H460 lung
[38] = test system: SR leukemia
[39] = test system: COLO 205 colon
[40] = test system: PC-3 prostate
[41] = test system: MOLT-4 leukemia
[42] = test system: SF-295 CNS
[43] = test system: SK-MEL-28 melanoma
[44] = test system: A549 NSCLC
[45] = test system: OVCAR-8 ovarian
[46] = test system: LOX IMVI melanoma
[47] = test system: NCI-H23 lung
[48] = test system: SK-MEL-5 melanoma
[49] = test system: ACHN renal
[50] = test system: KM12 colon
[51] = test system: M14 melanoma
[52] = test system: SF-268 CNS
[53] = test system: SF-539 CNS
[54] = test system: IGROV1 ovarian
[55] = test system: HOP-92 NSCLC
[56] = test system: RXF 393 renal
[57] = test system: NCI/ADR-RES ovarian
[58] = test system: UO-31 renal
[59] = test system: HL-60(TB) leukemia

Which results are given for `CCc1ccccc1NC(=O)/C=C/c1ccccc1`?
TGI [1]: > 100 µM; TGI [2]: > 100 µM; TGI [3]: > 100 µM; TGI [4]: > 100 µM; TGI [5]: > 100 µM; TGI [6]: > 100 µM; TGI [7]: > 100 µM; TGI [8]: > 100 µM; TGI [9]: > 100 µM; TGI [10]: > 100 µM; TGI [11]: > 100 µM; TGI [12]: > 100 µM; TGI [13]: > 100 µM; TGI [14]: > 100 µM; TGI [15]: > 100 µM; TGI [16]: > 100 µM; TGI [17]: > 100 µM; TGI [18]: > 100 µM; TGI [19]: > 100 µM; TGI [20]: > 100 µM; TGI [21]: > 100 µM; TGI [22]: > 100 µM; TGI [23]: > 100 µM; TGI [24]: > 100 µM; TGI [25]: > 100 µM; TGI [26]: > 100 µM; TGI [27]: > 100 µM; TGI [28]: > 100 µM; TGI [29]: > 100 µM; TGI [30]: > 100 µM; TGI [31]: > 100 µM; TGI [32]: > 100 µM; TGI [33]: > 100 µM; TGI [34]: > 100 µM; TGI [35]: > 100 µM; TGI [36]: > 100 µM; TGI [37]: > 100 µM; TGI [38]: > 100 µM; TGI [39]: > 100 µM; TGI [40]: > 100 µM; TGI [41]: > 100 µM; TGI [42]: > 100 µM; TGI [43]: > 100 µM; TGI [44]: > 100 µM; TGI [45]: > 100 µM; TGI [46]: > 100 µM; TGI [47]: > 100 µM; TGI [48]: > 100 µM; TGI [49]: > 100 µM; TGI [50]: > 100 µM; TGI [51]: > 100 µM; TGI [52]: > 100 µM; TGI [53]: > 100 µM

`CCOC(=O)c1c(C)nc2c(c1-c1cn(-c3ccccc3)nc1-c1ccccc1)C(=O)c1ccccc1-2` was tested. Which TGI [1] did it give?
The TGI was over 100 µM.

And the TGI [2]?
Its TGI is over 100 µM.

What about the TGI [3] of the same compound?
The TGI was over 100 µM.

What about the TGI [4] of the same compound?
Its TGI is over 100 µM.

And the TGI [5]?
The TGI was over 100 µM.

And the TGI [6]?
Its TGI is over 100 µM.

And the TGI [7]?
Its TGI is over 100 µM.

And the TGI [8]?
The TGI was over 100 µM.

What about the TGI [9] of the same compound?
Its TGI is over 100 µM.

And the TGI [10]?
Its TGI is over 100 µM.

And the TGI [11]?
The TGI was over 100 µM.

And the TGI [12]?
The TGI was over 100 µM.

What about the TGI [13] of the same compound?
The TGI was over 100 µM.

What about the TGI [14] of the same compound?
The TGI was over 100 µM.

What about the TGI [15] of the same compound?
Its TGI is over 100 µM.

And the TGI [16]?
The TGI was over 100 µM.

What about the TGI [17] of the same compound?
Its TGI is over 100 µM.

And the TGI [54]?
Its TGI is over 100 µM.

What about the TGI [18] of the same compound?
Its TGI is over 100 µM.

What about the TGI [55] of the same compound?
Its TGI is over 100 µM.

And the TGI [19]?
The TGI was over 100 µM.

And the TGI [20]?
The TGI was over 100 µM.

What about the TGI [21] of the same compound?
Its TGI is over 100 µM.

What about the TGI [22] of the same compound?
The TGI was over 100 µM.

What about the TGI [23] of the same compound?
The TGI was over 100 µM.

What about the TGI [24] of the same compound?
The TGI was over 100 µM.

What about the TGI [25] of the same compound?
Its TGI is over 100 µM.

And the TGI [27]?
The TGI was over 100 µM.

What about the TGI [28] of the same compound?
Its TGI is over 100 µM.

What about the TGI [31] of the same compound?
The TGI was over 100 µM.

And the TGI [32]?
The TGI was over 100 µM.

What about the TGI [33] of the same compound?
Its TGI is over 100 µM.

And the TGI [34]?
Its TGI is over 100 µM.

And the TGI [35]?
Its TGI is over 100 µM.

What about the TGI [36] of the same compound?
Its TGI is over 100 µM.

What about the TGI [39] of the same compound?
The TGI was over 100 µM.

And the TGI [40]?
The TGI was over 100 µM.

What about the TGI [41] of the same compound?
The TGI was over 100 µM.

What about the TGI [42] of the same compound?
Its TGI is over 100 µM.

What about the TGI [43] of the same compound?
Its TGI is over 100 µM.

And the TGI [44]?
The TGI was over 100 µM.

And the TGI [45]?
The TGI was over 100 µM.

What about the TGI [46] of the same compound?
Its TGI is over 100 µM.

And the TGI [47]?
The TGI was over 100 µM.

And the TGI [56]?
The TGI was over 100 µM.

What about the TGI [48] of the same compound?
Its TGI is over 100 µM.

And the TGI [50]?
The TGI was over 100 µM.

What about the TGI [51] of the same compound?
The TGI was over 100 µM.

And the TGI [52]?
The TGI was over 100 µM.

What about the TGI [57] of the same compound?
Its TGI is over 100 µM.

What does the source list for `COC(=O)NNC(c1ccc(Cl)cc1)c1ccc(Cl)cc1`?
TGI [1]: 34.9 µM; TGI [2]: 40.3 µM; TGI [3]: 35.3 µM; TGI [4]: 35.7 µM; TGI [5]: 48.1 µM; TGI [6]: 35.2 µM; TGI [7]: 35 µM; TGI [8]: 58.6 µM; TGI [9]: 30.3 µM; TGI [10]: 41.1 µM; TGI [11]: 38.7 µM; TGI [12]: 70 µM; TGI [13]: 55.3 µM; TGI [14]: 33.6 µM; TGI [15]: > 100 µM; TGI [58]: 25.2 µM; TGI [17]: 25.8 µM; TGI [54]: 34 µM; TGI [18]: 45.6 µM; TGI [19]: > 100 µM; TGI [20]: 40.3 µM; TGI [21]: 31.1 µM; TGI [22]: 31.9 µM; TGI [23]: 43.8 µM; TGI [24]: 68.2 µM; TGI [25]: 26.6 µM; TGI [26]: 52 µM; TGI [27]: 30.9 µM; TGI [28]: 54.1 µM; TGI [29]: 27.6 µM; TGI [30]: 75.6 µM; TGI [31]: 53 µM; TGI [32]: 34.2 µM; TGI [33]: 69 µM; TGI [34]: 32.4 µM; TGI [35]: 39 µM; TGI [36]: 40 µM; TGI [59]: 64.4 µM; TGI [37]: 35.2 µM; TGI [38]: 54.8 µM; TGI [39]: 38 µM; TGI [40]: 30.5 µM; TGI [41]: 55.9 µM; TGI [43]: 43 µM; TGI [44]: 32.8 µM; TGI [45]: 42.4 µM; TGI [46]: 32 µM; TGI [47]: 34.6 µM; TGI [56]: 23.7 µM; TGI [48]: 31.2 µM; TGI [50]: 37 µM; TGI [51]: 31.9 µM; TGI [52]: 49 µM; TGI [57]: 39.8 µM; TGI [53]: 39 µM
